Results on six compounds are retold here after PubChem BioAssay (NCI).

Values joined by “and” are separate entries in the source; they are usually repeats but may differ in a detail not shown here. Equal entries are not always repeated.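 These data come from cells grown in 96-well plates and exposed to compound for 48 hours at five concentrations. GI50 = concentration required for 50% inhibition of growth. TGI is the concentration that stops growth completely.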

Among the test systems are COLO 205 colon; HCT-15 colon; K-562 leukemia; KM12 colon; NCI-H23 lung; RPMI-8226 leukemia; SF-268 CNS; SF-539 CNS; SW-620 colon; UACC-257 melanoma.
Holding throughout (test): growth of human tumour cells (NCI), 48 h

As for `O=C1c2ccccc2C(=O)N1/N=C\c1ccc(Br)cc1`, the TGI with COLO 205 colon is > 100 µM; with HCT-15 colon it was > 100 µM; in the experiment with K-562 leukemia, > 100 µM; with KM12 colon it was > 100 µM; in the experiment with NCI-H23 lung, > 100 µM; with RPMI-8226 leukemia it was > 10 µM. The TGI in the experiment on SF-268 CNS, in the experiment on SF-539 CNS, with SW-620 colon and with UACC-257 melanoma was > 100 µM throughout. The GI50 with HCT-15 colon, with K-562 leukemia, with KM12 colon, in the experiment with NCI-H23 lung, with SF-268 CNS and with SF-539 CNS was > 100 µM in each case. Moreover, the GI50 in the experiment with SW-620 colon and in the experiment with UACC-257 melanoma was > 100 µM each time.

As to `Nc1ncc(-c2cnn(C3CCNCC3)c2)cc1-c1nc2ccccc2o1`, the GI50 is 1.55 µM in the experiment with COLO 205 colon; 0.508 µM in the experiment on HCT-15 colon; 0.309 µM in the experiment with K-562 leukemia; 0.0812 µM in the experiment with KM12 colon; 1.35 µM with NCI-H23 lung; 0.857 µM with RPMI-8226 leukemia. The GI50 with SF-268 CNS is 1.74 µM; in the experiment with SF-539 CNS it was 1.5 µM; in the experiment on SW-620 colon, 1.09 µM; in the experiment with UACC-257 melanoma, 2.04 µM. Moreover, the TGI with COLO 205 colon turned out to be 3.05 µM; in the experiment on HCT-15 colon, 2.5 µM; with K-562 leukemia, 1.07 µM; in the experiment with KM12 colon, 1.45 µM; in the experiment with NCI-H23 lung it was 12.7 µM; in the experiment with RPMI-8226 leukemia it was 2.7 µM. The TGI with SF-268 CNS is 4.58 µM; in the experiment on SF-539 CNS it was 2.83 µM; in the experiment with SW-620 colon it was 2.38 µM; in the experiment with UACC-257 melanoma, 3.94 µM.

`CS(=O)(=O)c1ccc(N/N=C/c2c(-c3ccc(S(C)(=O)=O)cc3)[nH]c3ccc(F)cc23)cc1`: the GI50 in the experiment on COLO 205 colon is 2.86 µM; in the experiment with HCT-15 colon, 18.1 µM; in the experiment with K-562 leukemia, 2 µM; in the experiment with KM12 colon, 2.84 µM; in the experiment on NCI-H23 lung it was 2.84 µM; in the experiment on RPMI-8226 leukemia, 1.15 µM. The GI50 is 3.4 µM in the experiment with SF-268 CNS, 0.676 µM in the experiment with SF-539 CNS, 4.57 µM in the experiment on SW-620 colon and 1.8 µM in the experiment on UACC-257 melanoma. Moreover, the TGI in the experiment on COLO 205 colon was > 50 µM; in the experiment with HCT-15 colon, > 50 µM; in the experiment with K-562 leukemia it was > 50 µM; in the experiment on KM12 colon it was > 50 µM; in the experiment with NCI-H23 lung it was > 50 µM; with RPMI-8226 leukemia it was 2.9 µM. The TGI is > 50 µM with SF-268 CNS, 2.11 µM in the experiment on SF-539 CNS, > 50 µM with SW-620 colon and 20.2 µM in the experiment on UACC-257 melanoma.

Regarding `CC[C@H](C)c1occ2c(O)c(C(=O)O)c(=O)cc-2c1C`, the TGI is 36.8 µM in the experiment on COLO 205 colon; 32.1 µM in the experiment with HCT-15 colon; > 100 µM in the experiment on K-562 leukemia; 35.7 µM in the experiment on KM12 colon; 43.1 µM in the experiment with NCI-H23 lung; 90.8 µM in the experiment with RPMI-8226 leukemia. Moreover, the TGI with SF-268 CNS is > 100 µM; with SF-539 CNS, 46.3 µM; with SW-620 colon, 44.5 µM; in the experiment with UACC-257 melanoma it was > 100 µM.

For `O=C(OC(C(=O)O)C(OC(=O)c1ccccc1)C(=O)O)c1ccccc1` (stereo not drawn) (tested in a mixture with another compound), the TGI in the experiment with COLO 205 colon was > 100 µM and 16.6 µM; in the experiment on HCT-15 colon, > 100 µM; with K-562 leukemia, > 100 µM; with KM12 colon, > 100 µM; with NCI-H23 lung, > 100 µM and 84.2 µM; with RPMI-8226 leukemia it was > 100 µM. The TGI in the experiment with SF-268 CNS, in the experiment on SF-539 CNS, with SW-620 colon and in the experiment with UACC-257 melanoma was > 100 µM each time.

For the compound `CSc1nc(NC2OCC(OC(C)=O)C(OC(C)=O)C2OC(C)=O)c(N=CC=Nc2c(NC3OCC(OC(C)=O)C(OC(C)=O)C3OC(C)=O)nc(SC)n(C)c2=O)c(=O)n1C` (stereo not drawn), the TGI in the experiment with COLO 205 colon, with HCT-15 colon, in the experiment with K-562 leukemia, in the experiment with KM12 colon, with NCI-H23 lung and in the experiment on RPMI-8226 leukemia was > 100 µM in each case. The TGI in the experiment on SF-268 CNS, with SF-539 CNS, with SW-620 colon and in the experiment on UACC-257 melanoma was > 100 µM in each case.
